Values of other authors, collected in publication PMC3085958 (Journal of medicinal chemistry, 2011).
Marks after values point to notes of the source that are not given here.

Target: CB2 receptors (Homo sapiens, UniProt P34972)
Settings: Kb value

Sequence of CB2 receptors (P34972 whole entry): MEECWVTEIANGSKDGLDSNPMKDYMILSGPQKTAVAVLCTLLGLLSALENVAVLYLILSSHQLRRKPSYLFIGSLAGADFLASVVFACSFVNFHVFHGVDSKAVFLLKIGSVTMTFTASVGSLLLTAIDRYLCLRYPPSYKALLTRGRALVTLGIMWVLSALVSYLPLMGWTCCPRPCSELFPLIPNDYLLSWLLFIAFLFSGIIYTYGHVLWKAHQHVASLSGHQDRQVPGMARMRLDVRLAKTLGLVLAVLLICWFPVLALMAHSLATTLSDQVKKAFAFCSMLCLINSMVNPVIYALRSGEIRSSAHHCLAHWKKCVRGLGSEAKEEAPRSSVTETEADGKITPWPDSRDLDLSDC

SMILES: COc1cccc([C@H]2C[C@@H](N[C@H](C)c3ccccc3)C(=O)N2c2ccc(C(F)(F)F)cc2)c1 [Ligand 3]
- CB2 Kb (in the CB2 Ki column): > 1,980 ^c nM
